Source: patent US20240139165A1, “METHODS AND COMPOSITIONS FOR TREATMENT OF INFLAMMATORY BOWEL DISEASE” (SHENZHEN HIGHTIDE BIOPHARMACEUTICAL, LTD., priority 2017, published 2024)

Test: Single-dose pharmacokinetic study of berberine and fish oil in rats
Format: in vivo, male Sprague-Dawley (SD) rats
Conditions: SD rats, single oral, BBR 100 mg/kg
Excerpt: In the single-dose pharmacokinetic study in rats, after 7-day acclimation, healthy male Sprague-Dawley (SD) rats with the body weight of 210-250 g were randomized into six groups as follows (3 rats per group). Fish oil used in this study containing 47.8% (w/w) EPA-ethyl ester and 39.0% (w/w) DHA-ethyl ester. [table] The rats in each group were orally treated with the suspensions of the corresponding testing articles indicated above in 0.5% gum tragacanth respectively. Blood samples of the test animals were collected pre-dose and at the time points of 15 min, 30 min, 1 h, 1.5 h, 2 h, 4 h, 8 h, and 24 h post-dose. The collected blood samples (approximately 400 μL) were placed into tubes containing heparin sodium and centrifuged at 8000 rpm for 6 minutes at 4° C. to separate plasma. The obtained plasma from each sample was stored at −80° C. until being analyzed. Plasma concentrations of BBR and EPA were determined, and PK parameters were calculated.

- Cmax of BBR: 4.23 ± 5.46 ng/mL
- Ratio of AUC0-t of BBR compared to BBR group: 1.00
- Ratio of Cmax of BBR compared to BBR group: 1.00
- AUC(0-t) (male, Sprague-Dawley, rat, plasma, read-out: AUC0-t of BBR): 0.0458 ± 0.0601 µg·h/mL
Structure (SMILES): COc1ccc2cc3[n+](cc2c1OC)CCc1cc2c(cc1-3)OCO2 [BBR, 5,6-dihydro-9,10-dimethoxybenzo[g]-1,3-benzodioxolo[5,6-a]quinolizinium]
